Experimental data: PubChem BioAssay AID1996
≈ marks a conversion by molar mass, not a printed value.

conditions: buffer; pH 7.4; 200.0 µM

SMILES	solubility kinetic [µg/mL]
COc1ccccc1C(=O)NCC(=O)Nc1cccnc1	> 42.8
O=C(COC(=O)CC1CCS(=O)(=O)C1)Nc1ccc(F)cc1 (centres undefined)	> 49.4
CN(Cc1ccccc1)S(=O)(=O)c1ccc(Cl)c(C(=O)OCC(=O)NC2CCS(=O)(=O)C2)c1 (centres undefined)	18 (≈ 35 µM)
CCN(CC)C(=O)N1c2ccccc2Sc2ccccc21	2.8 (≈ 9.38 µM)
O=C(Nc1ccccc1)OCCOc1ccc(Br)cc1	< 0.7
COc1ccc(OC)c(S(=O)(=O)NCCCc2ccccc2)c1	27.4 (≈ 81.7 µM)
COc1ccc(S(=O)(=O)N2CCN(C)CC2)cn1	> 40.7
O=C(O)/C=C/C(=O)Nc1ccc(O)cc1	> 31.1
CN1CCN(c2nc3ccccc3nc2C(C#N)S(=O)(=O)c2ccccc2)CC1 (centres undefined)	> 61.1
S=C(NCc1ccccc1)N1CCN(C2CCCCC2)CC1	> 47.6
COc1ccc(CNc2cc(NCCCO)c([N+](=O)[O-])c3nonc23)cc1	45.7 (≈ 122 µM)
O=C(Nc1ccccn1)Nc1ccccc1[N+](=O)[O-]	2.9 (≈ 11.2 µM)
O=c1[nH]c(=S)n(C2CC2)c(O)c1C=Nc1ccc2c(c1)OCO2	1.3 (≈ 3.92 µM)
CCC(C)NC(=O)[C@@H]1CSC2c3ccccc3C(=O)N21 (some centres undefined)	> 43.6
Cc1cnc(C(=O)OCC(=O)Nc2cccc(C)c2C)cn1	> 44.9
Cc1cc(C(=O)Nc2c(F)cc(F)cc2Br)cs1	25.9 (≈ 78 µM)
Cc1ccccc1N1CCN(Cc2nc(Cc3ccccc3)no2)CC1	11 (≈ 31.6 µM)
Cc1ccccc1/C=C/c1cccc[n+]1C.[I-]	> 50.6
O=C(NCc1ccco1)C1CC(c2ccc(Cl)cc2)=NO1 (centres undefined)	2.9 (≈ 9.52 µM)
COc1cc(NC(=O)c2ccccc2Cl)c2ncccc2c1	< 0.3

SMILES	solubility kinetic [µg/mL]
O=C(c1cc2cc([N+](=O)[O-])ccc2oc1=O)N1CCN(C2CCCCC2)CC1	> 57.8
O=C(O)CCc1[nH]c2ccccc2c1Sc1ccccc1	> 44.6
Cc1ccc(C)c(S(=O)(=O)/N=C(/Nc2ccccc2)c2ccccc2)c1	17.2 (≈ 47.2 µM)
OCCNc1nc2ccccc2nc1NCCO	35.2 (≈ 142 µM)
Cc1sc2ncnc(N3CCC(C(=O)Nc4ccc(OC(F)F)c(Cl)c4)CC3)c2c1C	5.7 (≈ 12.2 µM)
O=C(/C=C/c1ccccc1)Oc1coc(CSc2ncccn2)cc1=O	10.2 (≈ 27.8 µM)
O=C(O)CCC(=NNC(=O)c1cccc(S(=O)(=O)N2CCCCC2)c1)c1ccccc1	> 66.5
Cl.c1cncc(CNc2ncnc3sc4c(c23)CCC4)c1	7.5
Oc1ccc(Nc2nc(-c3ccccc3O)nc3ccccc23)cc1	2.1 (≈ 6.38 µM)
COc1ccc(NC(=O)C2(c3ccccc3)CCCC2)cc1	2.6 (≈ 8.8 µM)
N#Cc1nc(-c2ccc(F)cc2)oc1N1CCC(C(N)=O)CC1	12.4 (≈ 39.5 µM)
O=C(NCCCNC(=O)c1ccco1)c1cccc(F)c1	> 43.5
CCOC(=O)c1csc(NC(=O)c2cccs2)n1	28.9 (≈ 102 µM)
COc1ccc(S(=O)(=O)N2CCCCCC2)cc1C(=O)NCc1ccco1	46.5 (≈ 118 µM)
COc1ccc2o/c(=N\O)c(C(=O)Nc3ccc(C)cc3)cc2c1	11.7 (≈ 36.1 µM)
COc1cc(Br)c(CN2CCCN(C)CC2)cc1OC	44.2 (≈ 129 µM)
O=C(COC(=O)C1CC(=O)N(Cc2ccco2)C1)Nc1nc(-c2ccc(F)cc2)cs1 (centres undefined)	16.9 (≈ 38.1 µM)
O=C(c1ccco1)N1CCN(Cc2nc(Cc3ccccc3)no2)CC1	37.7 (≈ 107 µM)
COc1ccccc1NC(=O)Nc1ccc(CC#N)cc1	1.4 (≈ 4.98 µM)
COc1cccc(NC(=O)c2cc3ccccc3cc2OC)c1	2.8 (≈ 9.11 µM)

SMILES	solubility kinetic [µg/mL]
O=C(c1cccnc1)N1CCCC(Nc2ccc(F)cc2)C1 (centres undefined)	41.6 (≈ 139 µM)
COc1ccccc1N1CCN(C(=O)c2cc(C)on2)CC1	> 45.2
OC(CN1CCN(Cc2ccccc2)CC1)c1ccc(Br)cc1 (centres undefined)	8.1 (≈ 21.6 µM)
CSc1ccc(C2CC(=O)Nc3c2c(=O)n(C)c(=O)n3C)cc1 (centres undefined)	> 49.7
COP(=O)(OC)C(Nc1ccccc1)c1ccccc1 (centres undefined)	> 43.7
O=C(O)CC(CC(=O)Nc1ccc(C(=O)O)cc1)c1ccccc1 (centres undefined)	> 49.1
CN(C(=O)COC(=O)c1ccc(Br)c(S(=O)(=O)N2CCOCC2)c1)C1CCCCC1	> 75.5
COc1ccc(OC)c(-n2c(C)cc(C=O)c2C)c1	> 38.9
CCOC(=O)C(Nc1ccc2ccccc2c1)C(=O)OCC	> 45.2
O=C(NCCCNC(=O)c1cnccn1)c1ccc(Cl)c(Cl)c1	41.4 (≈ 117 µM)
COc1cc(CN2CCCCCC2)cc([N+](=O)[O-])c1O	35.6 (≈ 127 µM)
CCCC/C(O)=C1\C(=O)CC(C)(C)CC1=Nc1ccc(N)cc1	> 47.2
Cc1ccc2c(NC(=O)c3ccco3)cccc2n1	37.2 (≈ 147 µM)
Cc1ccc(CNc2cc(C(=O)O)ccc2Cl)s1	> 42.3
CC(C)NCC(O)COc1cccc2ccccc12.Cl (centres undefined)	> 44.4
COc1ccc(C(=O)NCC(=O)N/N=C(\C)c2ccco2)cc1OC	> 51.8
COc1cc(NC(=O)c2cc(C)no2)cc(OC)c1OC	> 43.8
CCN(c1ccccc1)S(=O)(=O)c1c(C)noc1C	31.4 (≈ 112 µM)
CC(=O)Nc1nc2c(C)c(Cl)ccc2s1	< 0.3
